US20130289083A1, “IDO Inhibitors” (priority 2007, published 2013)
Where two headings read alike, the source gives them in different places.

Legend:
[1] = target: human IDO (Homo sapiens, UniProt P14902); experiment: Cell based IDO/kynurenine assay in IDO-293-T-Rex cells; conditions: kynurenine production, 293T cell line stably expressing human IDO; values reported in ranges; read-out: hIDO EC50
Experimental: 293-T-REx™ cells (Invitrogen) constitutively express a tet operator binding repressor protein and are maintained in DMEM, 10% FBS, 1× Penicillin+Streptomycin, 2 mM L-glutamine, 5 μg/mL blasticidin at 37° C. with a 5% CO2 in air atmosphere and typically split prior to confluency. Cells were passed by splitting the culture 1/10—by removing media by aspiration, washing 1× with PBS, incubating with 0.25% trypsin/EDTA until the cells detach, disbursing the cells in fresh growth media, and plating at 1/10 dilutions in fresh growth media. For long term cryopreservation, cells are detached from the plate as described above, collected by centrifugation, resuspended in freeze medium (growth medium, 10% DMSO), stored in 1.8 mL cyropreservation vials (˜2−5×10^6 cells per vial), in liquid nitrogen vapor storage tanks.
IDOl-expressing 293-T-Rex™ cell lines were generated by stable transfection of plasmid pcDNA-tetO-IDO expressing human IDO or murine IDO under the control of the doxycycline-inducible CMV-tet promoter. Transfected cells were selected in DBZ medium (DMEM, 10% FBS, 1× Penicillin+Streptomycin, 2 mM L-glutamine, 5 μg/mL blasticidin and 25 μg/ml Zeocin) at 37° C. with a 5% CO2 in air atmosphere. Individual clones were isolated by limiting dilution cloning from these populations.
[…]. The cells incubated in Neutral medium serve as negative control of the assay. The cells incubated in Induction medium and without inhibitor serve as the positive control of the assay. The incubation is carried out for 16 h at 37° C. in a cell culture incubator. 200 μL of medium are transferred to U-bottom polypropylene 96-well plates containing 25 μL of 30% TCA, incubated 30 minutes at 60° C. and centrifuged at 3400 g for 5 minutes. 150 μL of the clear supernatant is transferred to a polystyrene 96-well plate containing 50 μL of 4% (w/v) of p-dimethylaminobenzaldehyde in acetic acid, incubated for 10 min. Kynurenine concentration is determined by measuring the absorbance at 480 nm.
The conditions of the assay were as described in the examples.

[2] = target: purified human IDO protein (Homo sapiens, UniProt P14902); experiment: Enzymatic IDO assay (kynurenine production, absorbance 480 nm); conditions: enzymatic activity, values reported in ranges
[3] = read-out: hIDO IC50, recombinant human IDO
[4] = hIDO IC50, recombinant human IDO

human IDO, sequence (P14902 whole entry): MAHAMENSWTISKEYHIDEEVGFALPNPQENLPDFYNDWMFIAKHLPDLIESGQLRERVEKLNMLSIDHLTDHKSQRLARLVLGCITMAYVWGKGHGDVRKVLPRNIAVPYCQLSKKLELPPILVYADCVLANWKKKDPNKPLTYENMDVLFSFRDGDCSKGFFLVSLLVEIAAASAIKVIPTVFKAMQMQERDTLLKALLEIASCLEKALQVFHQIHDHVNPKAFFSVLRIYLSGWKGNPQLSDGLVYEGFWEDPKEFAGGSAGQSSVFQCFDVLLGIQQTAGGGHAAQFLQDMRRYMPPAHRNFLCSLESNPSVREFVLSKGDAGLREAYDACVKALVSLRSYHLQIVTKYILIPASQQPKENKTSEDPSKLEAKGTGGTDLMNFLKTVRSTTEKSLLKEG
purified human IDO protein, sequence (P14902 whole entry P110S/E119G): as the sequence (P14902 whole entry) above, with P110S, E119G counted along it

| SMILES | EC50 [1] | IC50 [2, 3] | IC50 [2, 4] |
| --- | --- | --- | --- |
| CSC(=S)NCCc1c[nH]c2cc(F)c(F)c(F)c12 [compound 45] | 100 to 1000 µM | 100 to 1000 µM |  |
| Cc1cc2ccccc2cc1CCSC(=S)NCCc1c[nH]c2ccccc12 [compound 47, 2-(3-methylnaphthalen-2-yl)ethyl 2-(1H-indol-3-yl)ethylcarbamodithioate] | 20 to 100 µM |  | 100 to 1000 µM |
| S=C(NCCc1c[nH]c2ccccc12)SCc1ccc2c(c1)OCO2 [compound 50, Benzo[d][1,3]dioxol-5-ylmethyl 2-(1H-indol-3-yl)ethylcarbamodithioate] | 20 to 100 µM |  | 20 to 100 µM |
| S=C(NCCc1c[nH]c2ccccc12)SCc1noc2ccccc12 [compound 52, Benzo[d]isoxazol-3-ylmethyl 2-(1H-indol-3-yl)ethylcarbamodithioate] | 20 to 100 µM |  | 20 to 100 µM |
| S=C(NCCc1c[nH]c2ccccc12)SCCc1ccc2c(c1)OCCO2 [compound 53, 2-(2,3-Dihydrobenzo[b][1,4]dioxin-6-yl)ethyl 2-(1H-indol-3-yl)ethyl-carbamodithioate] | 20 to 100 µM |  | 100 to 1000 µM |
| S=C(NCCc1noc2ccccc12)SCc1ccc2ccccc2c1 [compound 58] | 20 to 100 µM | 100 to 1000 µM |  |
| S=C(NCCc1csc2ccccc12)SCc1ccc2ccccc2c1 [compound 60] | 20 to 100 µM | 20 to 100 µM |  |
| S=C(NCCC1CCc2ccccc2O1)SCc1ccc2ccccc2c1 (centres unmarked) [compound 63, naphthalen-2-ylmethyl 2-(chroman-2-yl)ethylcarbamodithioate] | 20 to 100 µM |  | 20 to 100 µM |
| S=C(NC1CSc2ccccc2C1)SCc1ccc2ccccc2c1 (centres unmarked) [compound 64, naphhalen-2-ylmethyl thiochroman-3-ylcarbamodithioate] | 20 to 100 µM | 100 to 1000 µM |  |
| S=C(NCCc1c[nH]c2ccccc12)SCc1cc2c(cc1Br)OCO2 [compound 65, (6-Bromobenzo[d][1,3]dioxol-5-yl)methyl 2-(1H-indol-3-yl)ethylcarbamodithioate] | 20 to 100 µM |  | 20 to 100 µM |
| CSC(=S)NCCc1ccc(C)cc1C [compound 66, Methyl 2,4-dimethylphenethylcarbamodithioate] | 100 to 1000 µM |  | 100 to 1000 µM |
| O=C1CSC(=S)N1Cc1c[nH]c2ccccc12 [compound 78, 3-((1H-indol-3-yl)methyl)-2-thioxothiazolidin-4-one] | 100 to 1000 µM |  | 100 to 1000 µM |
| O=C1CSC(=S)N1Cc1ccccc1 [compound 79, 3-Benzyl-2-thioxothiazolidin-4-one] | < 20 µM |  | 20 to 100 µM |
| NC(CSC(=S)NCc1ccccc1)C(=O)O (centres unmarked) [compound 138, 2-amino-3-(benzylcarbamothioylthio)-propanoic acid] | 20 to 100 µM |  | 100 to 1000 µM |
| NC(CSC(=S)NCCCc1ccccc1)C(=O)O (centres unmarked) [compound 140, 2-amino-3-(3-phenylpropyl-carbamo-thioylthio)propanoic acid] | 20 to 100 µM |  | 100 to 1000 µM |
| Cc1ccc(SC(=S)Nc2ccccc2)cc1 [compound 142, p-tolyl phenylcarbamodithioate] | 100 to 1000 µM |  | < 20 µM |
| O=C1NC(=S)S/C1=C\c1ccc2c(c1)OCO2 [compound 148, (Z)-5-(benzo[d][1,3]dioxol-5-ylmethylene)-2-thioxothiazolidin-4-one] | 100 to 1000 µM |  | 100 to 1000 µM |
| CC(=O)N1C(=O)/C(=C2/SC(=S)NC2=O)c2ccccc21 [compound 149] | 20 to 100 µM |  | 100 to 1000 µM |
| CN(C)c1ccc(/C=C2\CSC(=S)NC2=O)cc1 [compound 150, (Z)-5-(4-(dimethylamino)benzylidene)-2-thioxo-1,3-thiazinan-4-one] | 100 to 1000 µM |  | 100 to 1000 µM |
| O=C1C(CSC(=S)Nc2ccccc2)NC(=S)N1c1ccccc1 (centres unmarked) [compound 151, (5-oxo-1-phenyl-2-thioxoimidazolidin-4-yl)methyl phenylcarbamodithioate] | 100 to 1000 µM |  | 100 to 1000 µM |
| S=C1NC(c2ccccc2)NC(c2ccccc2)S1 (centres unmarked) [compound 152, 4,6-diphenyl-1,3,5-thiadiazinane-2-thione] | 20 to 100 µM |  | 20 to 100 µM |
| O=C1C=Cc2ccccc2C1=O [compound 167, naphthalene-1,2-dione] | 20 to 100 µM |  | < 20 µM |
| Oc1cccc2ccccc12 [compound 168, naphthalen-1-ol] | 100 to 1000 µM |  | 100 to 1000 µM |

| SMILES | EC50 [1] | IC50 [2, 3] | IC50 [2, 4] |
| --- | --- | --- | --- |
| Oc1cc(O)nc(SCc2ccccc2)n1 [compound 222, 2-(benzylthio)pyrimidine-4,6-diol] | 20 to 100 µM |  | 100 to 1000 µM |
| C=CCOc1ccc(CC)c(OCC=C)c1 [compound 252, 2,4-bis(allyloxy)-1-ethylbenzene] | 20 to 100 µM |  | 100 to 1000 µM |
| Cc1ccc(C)c(C(C)CC(=O)O)c1 (centres unmarked) [compound 261, 3-(2,5-dimethylphenyl)butanoic acid] | 20 to 100 µM |  | 100 to 1000 µM |
| CC(CC(=O)O)c1cccc([N+](=O)[O-])c1 (centres unmarked) [compound 282, 3-(3-nitrophenyl)butanoic acid] | 1000 to 10000 µM |  | 100 to 1000 µM |
| CC(=O)C1C2CCC(C2)C1(C)C (centres unmarked) [compound 289, 1-(3,3-dimethylbicyclo[2.2.1]heptan-2-yl)ethanone] | 1000 to 10000 µM |  | 100 to 1000 µM |
| O=C(O)Cc1cccc2sccc12 [compound 307, 2-(benzo[b]thiophen-4-yl)acetic acid] | 1000 to 10000 µM |  | < 20 µM |
| Nc1cc(S(=O)O)c2cccnc2c1O [compound 309, 7-amino-8-hydroxyquinoline-5-sulfinic acid] | 100 to 1000 µM |  | 20 to 100 µM |
| NC(=O)C(=O)NNc1ccccc1 [compound 312, 2-oxo-2-(2-phenylhydrazinyl)acetamide] | < 20 µM |  | < 20 µM |
| O=C(O)CC(=O)c1ccc(F)cc1 [compound 313, 3-(4-fluorophenyl)-3-oxopropanoic acid] | 100 to 1000 µM |  | 100 to 1000 µM |
| O=C1C=C(O)C(=O)c2nc(O)ccc21 [compound 320, 2,7-dihydroxyquinoline-5,8-dione] | 1000 to 10000 µM |  | < 20 µM |
| Nc1ccc2[nH]cc(CCC(=O)O)c2c1 [compound 325, 3-(5-amino-1H-indol-3-yl)propanoic acid] | 1000 to 10000 µM |  | 100 to 1000 µM |
| Nc1ccc2[nH]cc(C(=O)O)c2c1 [compound 352, 5-amino-1H-indole-3-carboxylic acid] | 1000 to 10000 µM |  | 100 to 1000 µM |
| CC1=C(CN2C(=O)c3ccccc3C2=O)C(=O)c2ccccc2C1=O [compound 464, 2-((3-methyl-1,4-dioxo-1,4-dihydronaphthalen-2-yl)methyl)isoindoline-3-dione] | 1000 to 10000 µM |  | 20 to 100 µM |
| O=C1C(O)=C(CC2=C(O)C(=O)c3ccccc3C2=O)C(=O)c2ccccc21 [compound 477] | 20 to 100 µM |  | < 20 µM |
| Cc1c(O)c(=O)ccn1CCc1c[nH]c2ccccc12 [compound 552, 1-(2-(1H-indol-3-yl)ethyl)-3-hydroxy-2-methylpyridin-4(1H)-one] | 20 to 100 µM |  | 100 to 1000 µM |
| O=C(Cc1csc(=S)[nH]1)NCc1c[nH]c2ccccc12 [compound 561, N-((1H-indol-3-yl)methyl)-2-(2-thioxo-2,3-dihydrothiazol-4-yl)acetamide] | 20 to 100 µM |  | 100 to 1000 µM |
| Nc1ccccc1NC(=O)CCCc1c[nH]c2ccccc12 [compound 588, N-(2-aminophenyl)-4-(1H-indol-3-yl)butanamide] | 100 to 1000 µM |  | 100 to 1000 µM |
| Oc1ccccc1C(=S)NCc1ccc2ccccc2c1 [compound 607, 2-hydroxy-N-(naphthalen-2-ylmethyl)benzothioamide] | 20 to 100 µM |  | 20 to 100 µM |
| Oc1ccccc1C(=S)NCCc1ccccc1 [compound 634, 2-Hydroxy-N-phenethylbenzothioamide] | 100 to 1000 µM |  | 100 to 1000 µM |
| Oc1ccccc1C(=S)NCCc1c[nH]c2ccccc12 [compound 644, N-(2-(1H-indol-3-yl)ethyl)-2-hydroxybenzothioamide] | 20 to 100 µM |  | 100 to 1000 µM |
| Oc1ccccc1C(=S)NCc1ccccc1 [compound 656, N-Benzyl-2-hydroxybenzothioamide] | 20 to 100 µM |  | 100 to 1000 µM |
| Oc1ccccc1C(=S)NCCc1csc2ccccc12 [compound 672, N-(2-(benzo[b]thiophen-3-yl)ethyl)-2-hydroxybenzothioamide] | 20 to 100 µM |  | 100 to 1000 µM |
| Cn1[nH]c(=O)c(=O)nc1SCc1ccc2ccccc2c1 [compound 682, 2-Methyl-3-(naphthalen-2-ylmethylthio)-1,2-dihydro-1,2,4-triazine-5,6-dione] | 100 to 1000 µM |  | 100 to 1000 µM |
